{
  "source": "patent US11680085B2",
  "about": "“Cyclic peptides for protection against respiratory syncytial virus” (VIROMETIX AG, priority 2017, dated 2023)",
  "test_system": "RSV A/Tracy",
  "experiment": "Micro-Neutralization Test (MNT)",
  "type": "cell-based, respiratory syncytial virus",
  "conditions": "40 μg/ml mAb in test solution",
  "method": "In order to assess the neutralization capacity of the mAb at 40 μg/ml against RSV A/Tracy a Micro-Neutralization Test (MNT) was performed. A 40 μg/ml Palivizumab stock was taken as positive control and 40 μg/ml stock of an isotype-matched mAb as negative control (Table 10).",
  "data": [
    {"substance": "Palivizumab", "values": [
      {"measurement": "RSV A, Tracy MN titer (log2)", "result": 5.0, "unit": "log2"}
    ]}
  ]
}
